Measurements taken from patent US10377753B2, “Substituted 4-azaindoles and their use as GluN2B receptor modulators” (Janssen Pharmaceutica NV, priority 2015, dated 2019).
Counter-ions that a name gives are not always drawn.

Molecular target: cloned human NR1/NR2B ion channels (Homo sapiens (Human), UniProt Q05586+Q13224)
Assay: HNR2BC: effects of test articles on cloned human NR1/NR2B ion channels expressed in mammalian cells (FLIPR calcium flux)
Type: cell-based
Conditions: cloned human NR1/NR2B, Table 5
Experimental: HNR2BC: Effects of Test Articles on Cloned Human NR1/NR2B Ion Channels Expressed in Mammalian Cells
NMDA receptors are ion channels that are highly permeable to Ca^2+ ions, rendering it possible to monitor NMDA receptor function using cell-based calcium flux assay. In this assay, co-agonists glutamate and glycine are added to cells heterologously expressing human GluN1/GluN2B NMDA receptors to initiate cellular Ca^2+ influx. The time course of the changes in intracellular calcium is measured using a fluorescent dye and a FLIPR (Fluorometric Imaging Plate Reader) device.
Twenty four hours before measurements, the expression of the NMDA receptors in the stable cell line is induced with Tet-On inducible system in the presence of a non-selective NMDA receptor blocker. On the day of the experiment, cell culture media is carefully washed and the cells are loaded with Calcium 5 Dye Kit (Molecular Devices) in dye loading buffer containing 137 mM NaCl, 4 mM KCl, 2 mM CaCl2, 0.5 mM MgCl2, 10 mM HEPES and 5 mM D-glucose; pH 7.4. After 1 h incubation at the room temperature, the dye is washed away with the assay buffer (137 mM NaCl, 4 mM KCl, 2 mM CaCl2, 0.01 mM EDTA, 10 mM HEPES and 5 mM D-glucose; pH 7.4) In the FLIPR TETRA reader, various concentrations of the test compounds are added to the cells for 5 min while fluorescence is monitored to detect potential agonist activity. Next, co-agonists, glutamate and glycine are added for another 5 minutes. The concentration of glutamate corresponding to ˜EC80 is used to maximize the assay's signal window and ability to detect NMDA receptor antagonists and negative allosteric modulators. A saturating concentration (10 μM) of glycine is also present in the assay. […] The fluorescent signal in the presence of test compounds is quantified and normalized to the signal defined by the appropriate control wells.

Chain of cloned human NR1/NR2B ion channels (Q13224 27-1484, other chains not shown): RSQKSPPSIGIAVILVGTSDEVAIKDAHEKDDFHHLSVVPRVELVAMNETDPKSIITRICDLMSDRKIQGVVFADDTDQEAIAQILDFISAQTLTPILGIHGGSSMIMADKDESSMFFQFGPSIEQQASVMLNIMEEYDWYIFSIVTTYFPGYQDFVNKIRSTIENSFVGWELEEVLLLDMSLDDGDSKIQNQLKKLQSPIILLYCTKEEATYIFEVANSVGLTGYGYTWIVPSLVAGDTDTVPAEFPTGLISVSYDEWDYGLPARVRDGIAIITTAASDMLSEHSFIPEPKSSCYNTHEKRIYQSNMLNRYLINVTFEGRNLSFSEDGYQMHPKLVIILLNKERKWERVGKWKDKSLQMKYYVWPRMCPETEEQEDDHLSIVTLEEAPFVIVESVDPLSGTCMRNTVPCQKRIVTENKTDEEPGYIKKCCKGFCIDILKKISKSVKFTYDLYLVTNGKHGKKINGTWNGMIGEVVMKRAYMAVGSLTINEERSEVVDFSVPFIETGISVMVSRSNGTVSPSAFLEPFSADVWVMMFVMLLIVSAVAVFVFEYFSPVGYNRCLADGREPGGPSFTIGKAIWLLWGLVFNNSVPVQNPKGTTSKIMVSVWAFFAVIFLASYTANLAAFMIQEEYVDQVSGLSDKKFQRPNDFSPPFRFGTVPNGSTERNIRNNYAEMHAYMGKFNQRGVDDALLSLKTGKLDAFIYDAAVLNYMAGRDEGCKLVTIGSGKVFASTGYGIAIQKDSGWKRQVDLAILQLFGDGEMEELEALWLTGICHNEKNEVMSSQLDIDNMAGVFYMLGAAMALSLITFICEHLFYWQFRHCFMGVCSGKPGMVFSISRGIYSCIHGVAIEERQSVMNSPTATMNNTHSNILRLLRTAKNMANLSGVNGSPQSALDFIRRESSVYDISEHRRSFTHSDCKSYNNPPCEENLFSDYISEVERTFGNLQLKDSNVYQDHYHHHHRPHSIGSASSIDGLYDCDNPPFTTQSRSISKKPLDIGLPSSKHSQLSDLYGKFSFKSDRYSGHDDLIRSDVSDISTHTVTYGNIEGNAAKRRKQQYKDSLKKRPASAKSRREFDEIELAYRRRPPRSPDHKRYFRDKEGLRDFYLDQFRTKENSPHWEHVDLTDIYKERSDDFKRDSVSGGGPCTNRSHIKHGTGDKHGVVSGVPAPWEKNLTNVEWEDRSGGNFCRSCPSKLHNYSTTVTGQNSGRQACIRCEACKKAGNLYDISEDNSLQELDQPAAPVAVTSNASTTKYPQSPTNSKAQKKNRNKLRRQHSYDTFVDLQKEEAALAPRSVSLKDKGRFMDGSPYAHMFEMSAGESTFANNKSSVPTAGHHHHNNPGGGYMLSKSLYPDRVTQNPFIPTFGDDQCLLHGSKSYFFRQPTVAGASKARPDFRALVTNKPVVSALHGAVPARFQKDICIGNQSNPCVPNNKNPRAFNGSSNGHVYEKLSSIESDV

Compound	IC50 [nM]	pIC50
CC(NC(=O)Cn1ccc2ncc(-c3ccc(F)cc3)cc21)C(F)(F)F (racemic) [Example 231, (R/S)-2-[6-(4-Fluorophenyl)pyrrolo[3,2-b]pyridin-1-yl]-N-(2,2,2-trifluoro-1-methyl-ethyl)acetamide]	2000	–
CC(C)C(O)Cn1ccc2ncc(-c3cc(F)cc(F)c3)cc21 (racemic) [Example 272]	25.1	–
O=C(Cn1cc(Cl)c2ncc(-c3ccccc3)cc21)NC1CC1 [Example 1, 2-(3-Chloro-6-phenyl-pyrrolo[3,2-b]pyridin-1-yl)-N-cyclopropyl-acetamide]	316	–
O=C(Cn1cc(Cl)c2ncc(-c3ccc(F)cc3)cc21)NC1CC1 [Example 2, 2-[3-Chloro-6-(4-fluorophenyl)pyrrolo[3,2-b]pyridin-1-yl]-N-cyclopropyl-acetamide]	126	–
O=C(Cn1cc(Cl)c2ncc(-c3ccc(F)cc3)cc21)N1CCC1 [Example 3, 1-(Azetidin-1-yl)-2-[3-chloro-6-(4-fluorophenyl)pyrrolo[3,2-b]pyridin-1-yl]ethanone]	–	7.6
O=C(Cn1cc(Cl)c2ncc(-c3ccccc3)cc21)N1CCCC1 [Example 4, 2-(3-Chloro-6-phenyl-pyrrolo[3,2-b]pyridin-1-yl)-1-pyrrolidin-1-yl-ethanone]	50.1	–
O=C(Cn1cc(Cl)c2ncc(-c3ccccc3)cc21)N1CCOCC1 [Example 5, 2-(3-Chloro-6-phenyl-pyrrolo[3,2-b]pyridin-1-yl)-1-morpholino-ethanone]	200	–
O=C(Cn1cc(Cl)c2ncc(-c3ccccc3)cc21)N1CCC1 [Example 6, 1-(Azetidin-1-yl)-2-(3-chloro-6-phenyl-pyrrolo[3,2-b]pyridin-1-yl)ethanone]	50.1	–
O=C(Cn1cc(Cl)c2ncc(-c3ccc(F)cc3)cc21)N1CCOCC1 [Example 7, 2-[3-Chloro-6-(4-fluorophenyl)pyrrolo[3,2-b]pyridin-1-yl]-1-morpholino-ethanone]	158	–
Cc1cccc(-c2cnc3c(Cl)cn(CC(=O)N4CCC4)c3c2)c1 [Example 8, 1-(Azetidin-1-yl)-2-[3-chloro-6-(m-tolyl)pyrrolo[3,2-b]pyridin-1-yl]ethanone]	31.6	–
O=C(Cn1cc(Cl)c2ncc(-c3ccc(F)cc3)cc21)N1CCCC1 [Example 9, 2-[3-Chloro-6-(4-fluorophenyl)pyrrolo[3,2-b]pyridin-1-yl]-1-pyrrolidin-1-yl-ethanone]	63.1	–
Cc1cccc(-c2cnc3c(Cl)cn(CC(=O)NC4CC4)c3c2)c1 [Example 10, 2-[3-Chloro-6-(m-tolyl)pyrrolo[3,2-b]pyridin-1-yl]-N-cyclopropyl-acetamide]	50.1	–
O=C(Cn1cc(Br)c2ncc(-c3ccccc3)cc21)N1CCC1 [Example 11, 1-(Azetidin-1-yl)-2-(3-bromo-6-phenyl-pyrrolo[3,2-b]pyridin-1-yl)ethanone]	25.1	–
Cc1cccc(-c2cnc3c(Cl)cn(CC(=O)N4CCCC4)c3c2)c1 [Example 12, 2-[3-Chloro-6-(m-tolyl)pyrrolo[3,2-b]pyridin-1-yl]-1-pyrrolidin-1-yl-ethanone]	39.8	–
Cc1cccc(-c2cnc3c(Cl)cn(CC(=O)N4CCOCC4)c3c2)c1 [Example 13, 2-[3-Chloro-6-(m-tolyl)pyrrolo[3,2-b]pyridin-1-yl]-1-morpholino-ethanone]	50.1	–
O=C(Cn1cc(Br)c2ncc(-c3ccccc3)cc21)NC1CC1 [Example 14, 2-(3-Bromo-6-phenyl-pyrrolo[3,2-b]pyridin-1-yl)-N-cyclopropyl-acetamide]	126	–
O=C(Cn1cc(Br)c2ncc(-c3ccccc3)cc21)N1CCCC1 [Example 15, 2-(3-Bromo-6-phenyl-pyrrolo[3,2-b]pyridin-1-yl)-1-pyrrolidin-1-yl-ethanone]	39.8	–
O=C(Cn1cc(Br)c2ncc(-c3ccccc3)cc21)N1CCOCC1 [Example 16, 2-(3-Bromo-6-phenyl-pyrrolo[3,2-b]pyridin-1-yl)-1-morpholino-ethanone]	79.4	–
O=C(Cn1cc(Br)c2ncc(-c3ccc(F)cc3)cc21)NC1CC1 [Example 17, 2-[3-Bromo-6-(4-fluorophenyl)pyrrolo[3,2-b]pyridin-1-yl]-N-cyclopropyl-acetamide]	50.1	–
O=C(Cn1cc(Br)c2ncc(-c3ccc(F)cc3)cc21)N1CCC1 [Example 18, 1-(Azetidin-1-yl)-2-[3-bromo-6-(4-fluorophenyl)pyrrolo[3,2-b]pyridin-1-yl]ethanone]	20	–
O=C(Cn1cc(Br)c2ncc(-c3ccc(F)cc3)cc21)N1CCCC1 [Example 19, 2-[3-Bromo-6-(4-fluorophenyl)pyrrolo[3,2-b]pyridin-1-yl]-1-pyrrolidin-1-yl-ethanone]	31.6	–

Next, values leading:

IC50 [nM]	pIC50	Compound
794	–	Cc1cc(-c2cnc3ccn(CC4CO4)c3c2)ccc1F (racemic) [Example 180, (R/S)-6-(4-Fluoro-3-methyl-phenyl)-1-(oxiran-2-ylmethyl)pyrrolo[3,2-b]pyridine trifluoroacetate salt]
501	–	Cc1cc(-c2cnc3ccn(CC4CCO4)c3c2)ccc1F (racemic) [Example 184, (R/S)-6-(4-Fluoro-3-methyl-phenyl)-1-(oxetan-2-ylmethyl)pyrrolo[3,2-b]pyridine trifluoroacetate salt]
126	–	Cc1cc(-c2cnc3ccn(CC(=O)N4CC5CC5C4)c3c2)ccc1F (racemic) [Example 189, (R/S)-1-(3-Azabicyclo[3.1.0]hexan-3-yl)-2-[6-(4-fluoro-3-methyl-phenyl)pyrrolo[3,2-b]pyridin-1-yl]ethanone trifluoroacetate salt]
158	–	Cc1cc(-c2cnc3ccn(CC(=O)N4CCOC(C)C4)c3c2)ccc1F (racemic) [Example 194, (R/S)-2-[6-(4-Fluoro-3-methyl-phenyl)pyrrolo[3,2-b]pyridin-1-yl]-1-(2-methylmorpholin-4-yl)ethanone trifluoroacetate salt]
398	–	Cc1cc(-c2cnc3ccn(CC(=O)N4CCCC(C(F)(F)F)C4)c3c2)ccc1F (racemic) [Example 195, (R/S)-2-[6-(4-Fluoro-3-methyl-phenyl)pyrrolo[3,2-b]pyridin-1-yl]-1-[3-(trifluoromethyl)-1-piperidyl]ethanone trifluoroacetate salt]
1260	–	CCC1CCCN1C(=O)Cn1ccc2ncc(-c3ccc(F)c(C)c3)cc21 (racemic) [Example 196, (R/S)-1-(2-Ethylpyrrolidin-1-yl)-2-[6-(4-fluoro-3-methyl-phenyl)pyrrolo[3,2-b]pyridin-1-yl]ethanone trifluoroacetate salt]
1000	–	COC1CCN(C(=O)Cn2ccc3ncc(-c4ccc(F)c(C)c4)cc32)C1 (racemic) [Example 198, (R/S)-2-[6-(4-Fluoro-3-methyl-phenyl)pyrrolo[3,2-b]pyridin-1-yl]-1-(3-methoxypyrrolidin-1-yl)ethanone trifluoroacetate salt]
200	–	Cc1cc(-c2cnc3ccn(CC(=O)N4CCCC(F)C4)c3c2)ccc1F (racemic) [Example 199, (R/S)-2-[6-(4-Fluoro-3-methyl-phenyl)pyrrolo[3,2-b]pyridin-1-yl]-1-(3-fluoro-1-piperidyl)ethanone trifluoroacetate salt]
398	–	Cc1cc(-c2cnc3ccn(CC(=O)N4CCOCC4C)c3c2)ccc1F (racemic) [Example 210, (R/S)-2-[6-(4-Fluoro-3-methyl-phenyl)pyrrolo[3,2-b]pyridin-1-yl]-1-(3-methylmorpholin-4-yl)ethanone trifluoroacetate salt]
398	–	O=C(Cn1ccc2ncc(-c3ccc(F)cc3)cc21)N1CCC(O)C1 (racemic) [Example 218, (R/S)-2-[6-(4-Fluorophenyl)pyrrolo[3,2-b]pyridin-1-yl]-1-(3-hydroxypyrrolidin-1-yl)ethanone]
631	–	Fc1ccc(-c2cnc3ccn(CC4CCCCO4)c3c2)cc1 (racemic) [Example 228, (R/S)-6-(4-Fluorophenyl)-1-(tetrahydropyran-2-ylmethyl)pyrrolo[3,2-b]pyridine trifluoroacetate salt]
158	–	Cc1cc(-c2cnc3ccn(CC(C)(O)C4CC4)c3c2)ccc1F (racemic) [Example 275, (R/S)-2-Cyclopropyl-1-[6-(4-fluoro-3-methyl-phenyl)pyrrolo[3,2-b]pyridin-1-yl]propan-2-ol trifluoroacetate salt]
79.4	–	Cc1cc(-c2cnc3ccn(CC(F)C4CC4)c3c2)ccc1F (racemic) [Example 289, (R/S)-1-(2-Cyclopropyl-2-fluoro-ethyl)-6-(4-fluoro-3-methyl-phenyl)pyrrolo[3,2-b]pyridine]
3980	–	Cc1cc(-c2cnc3ccn(C[S+](C)[O-])c3c2)ccc1F (racemic) [Example 331, (R/S)-6-(4-Fluoro-3-methyl-phenyl)-1-(methylsulfinylmethyl)pyrrolo[3,2-b]pyridine]
31.6	–	O=C(Cn1ccc2ncc(-c3ccc(F)cc3)cc21)N1CC[C@H](F)C1 (single isomer, unassigned) [Example 293, trifluoroacetate salt]
